Drawing on PubChem BioAssay (NCI), this text covers TGI for 19 compounds.

Test systems include UO-31 renal; NCI-H23 lung; UACC-257 melanoma; EKVX NSCLC; CAKI-1 renal; OVCAR-8 ovarian; OVCAR-4 ovarian; HOP-62 NSCLC; MDA-N; UACC-62 melanoma; COLO 205 colon; BT-549 breast.
Common to all, as to experiment: DTP human tumour cell line panel, 48 h

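Growth conditions: 96-well plates. Treatment: test compound, 48 hours, 5 concentrations. Analysis: linear interpolation between bracketing concentrations; unreached endpoints set to highest concentration. TGI: concentration producing complete growth inhibition.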

With `Cc1cc(=O)oc2cc(OCC(O)COC(C)C)ccc12` (stereo not given), the TGI in the test on UO-31 renal, in the test with NCI-H23 lung, with UACC-257 melanoma, with EKVX NSCLC, with CAKI-1 renal and with OVCAR-8 ovarian was greater than 100 µM in each case. In addition, the TGI with OVCAR-4 ovarian, in the test on HOP-62 NSCLC, in the test on MDA-N, with UACC-62 melanoma and with COLO 205 colon was greater than 100 µM in each case.
For the compound `CCN(CC)CCN(C)c1ccc(CO)c2c1C(=O)c1ccccc1S2=O` (stereo not given), the total growth inhibition concentration (TGI) came to 42.1 µM in the test on UO-31 renal; 8.29 µM in the test with NCI-H23 lung; 3.55 µM in the test on UACC-257 melanoma; 13.6 µM in the test with EKVX NSCLC; 26.7 µM in the test on BT-549 breast; 26.2 µM with CAKI-1 renal. For the same compound, the total growth inhibition concentration (TGI) was 3.5 µM in the test with OVCAR-8 ovarian; 11.7 µM with OVCAR-4 ovarian; 8.71 µM in the test with HOP-62 NSCLC; 17.6 µM with UACC-62 melanoma; 21.6 µM with COLO 205 colon.
With `CC(=O)OCC(=O)OC[C@H](OCc1ccccc1)[C@@H]1[C@H](OC(C)=O)C(=O)N1Cc1ccccc1`, the concentration for total growth inhibition (TGI) with UO-31 renal, in the test on NCI-H23 lung, in the test with UACC-257 melanoma, in the test on EKVX NSCLC, with OVCAR-8 ovarian and in the test on OVCAR-4 ovarian was greater than 100 µM in each case. Moreover, the TGI in the test on HOP-62 NSCLC, in the test with MDA-N, in the test with UACC-62 melanoma and in the test with COLO 205 colon was greater than 100 µM in each case.
As for `OC(CN(CCCl)CCCl)C(O)C(O)C(O)CN(CCCl)CCCl` (stereo not given), the TGI in the test on UO-31 renal, in the test on NCI-H23 lung, with UACC-257 melanoma, in the test on EKVX NSCLC, in the test on BT-549 breast and in the test on CAKI-1 renal was greater than 100 µM in each case. For the same compound, the concentration for total growth inhibition (TGI) in the test on OVCAR-8 ovarian, in the test with HOP-62 NSCLC, with UACC-62 melanoma and in the test with COLO 205 colon was greater than 100 µM each time.
On to `Nc1ncnc2c1ncn2C1CCC(CP(=O)(O)O)C1` (stereo not given), for which the concentration for total growth inhibition (TGI) in the test on UO-31 renal, in the test with NCI-H23 lung, with UACC-257 melanoma, with EKVX NSCLC, in the test with OVCAR-8 ovarian and with OVCAR-4 ovarian was greater than 100 µM each time. The total growth inhibition concentration (TGI) in the test with HOP-62 NSCLC, in the test on MDA-N, with UACC-62 melanoma and in the test with COLO 205 colon was greater than 100 µM in each case.
For the compound `COc1c(C(=O)NCCN(CCNC(=O)c2cccc(-c3cccc(C(=O)N(C)C)c3OC)c2OC)CCNC(=O)c2cccc(-c3cccc(C(=O)N(C)C)c3OC)c2OC)cccc1-c1cccc(C(=O)N(C)C)c1OC`, the TGI in the test with UO-31 renal is greater than 100 µM; in the test on NCI-H23 lung it was greater than 100 µM; in the test on UACC-257 melanoma it was 75.5 µM; in the test with EKVX NSCLC, greater than 100 µM; in the test on CAKI-1 renal, greater than 100 µM; in the test with OVCAR-8 ovarian, greater than 100 µM. In addition, the TGI in the test with OVCAR-4 ovarian is 84 µM; in the test with HOP-62 NSCLC, greater than 100 µM; in the test with MDA-N, 37.9 µM; in the test with UACC-62 melanoma, 67.2 µM; in the test on COLO 205 colon it was 48.6 µM.
In the case of `CSc1nc2c(c(=O)n1C)N=C(c1ccc([N+](=O)[O-])cc1)CC(c1ccccc1)N2` (stereo not given), the total growth inhibition concentration (TGI) in the test on UO-31 renal, in the test on NCI-H23 lung, in the test on UACC-257 melanoma, with EKVX NSCLC, in the test on BT-549 breast and with CAKI-1 renal was greater than 100 µM in each case. In addition, the total growth inhibition concentration (TGI) in the test with OVCAR-8 ovarian, with OVCAR-4 ovarian, with HOP-62 NSCLC, in the test with UACC-62 melanoma and in the test with COLO 205 colon was greater than 100 µM in each case.
For the compound `O=C(CSCC(=O)N/N=C\c1cccc([N+](=O)[O-])c1)N/N=C\c1cccc([N+](=O)[O-])c1`, the total growth inhibition concentration (TGI) was greater than 100 µM in the test with UO-31 renal; 31.1 µM in the test with NCI-H23 lung; greater than 100 µM in the test on UACC-257 melanoma; greater than 100 µM with EKVX NSCLC; 64.4 µM in the test on CAKI-1 renal; greater than 100 µM with OVCAR-8 ovarian. Further, the concentration for total growth inhibition (TGI) with OVCAR-4 ovarian was greater than 100 µM; in the test with HOP-62 NSCLC, 16.3 µM; with UACC-62 melanoma, greater than 100 µM; with COLO 205 colon, greater than 100 µM.
Consider `CCCCCCCCCOCC(COP(=O)([O-])OCC[N+](C)(C)C)OC` (stereo not given), for which the TGI with UO-31 renal, in the test with NCI-H23 lung, with UACC-257 melanoma, in the test with EKVX NSCLC, in the test with CAKI-1 renal and in the test with OVCAR-8 ovarian was greater than 100 µM in each case. The TGI in the test with OVCAR-4 ovarian, in the test with HOP-62 NSCLC, with UACC-62 melanoma and with COLO 205 colon was greater than 100 µM each time.
In the case of `CCOC(=O)CC(NC(=O)c1[nH]cnc1/N=N/N(C)C)C(=O)OCC` (stereo not given), the concentration for total growth inhibition (TGI) with UO-31 renal, in the test on NCI-H23 lung, in the test with UACC-257 melanoma, in the test on EKVX NSCLC, in the test with CAKI-1 renal and with OVCAR-8 ovarian was greater than 100 µM each time. The concentration for total growth inhibition (TGI) with OVCAR-4 ovarian, in the test on HOP-62 NSCLC, with UACC-62 melanoma and in the test on COLO 205 colon was greater than 100 µM each time.
On to `CCc1ccc(COC(=O)C2=C(C)NC(C)=C(C(=O)OCc3ccc(CC)cn3)C2C2=COCCO2)nc1`, for which the TGI is 60.4 µM with UO-31 renal; 51 µM with NCI-H23 lung; 41.5 µM with UACC-257 melanoma; 65.1 µM with EKVX NSCLC; 31.1 µM in the test with BT-549 breast; 88.5 µM with CAKI-1 renal. Moreover, the TGI was greater than 100 µM with OVCAR-8 ovarian; 66.9 µM in the test with OVCAR-4 ovarian; 37.8 µM in the test on HOP-62 NSCLC; 36.7 µM in the test with UACC-62 melanoma; 29.6 µM in the test on COLO 205 colon.
Turning to `COc1ccc(-c2c3c(n(C4OC(CO)C(O)C(O)C4O)c(=S)c2C#N)CCCC3)cc1` (stereo not given), the TGI in the test with NCI-H23 lung, in the test with UACC-257 melanoma, in the test on EKVX NSCLC, with CAKI-1 renal, in the test with OVCAR-8 ovarian and in the test on OVCAR-4 ovarian was greater than 100 µM each time. For the same compound, the concentration for total growth inhibition (TGI) in the test on HOP-62 NSCLC, in the test on MDA-N, with UACC-62 melanoma and in the test with COLO 205 colon was greater than 100 µM throughout.
As for `O=C1CC(CC(=O)c2ccc(Br)cc2)C(=O)/C1=C(/O)c1ccc(Br)cc1` (stereo not given), the TGI in the test with UO-31 renal, in the test with NCI-H23 lung, with UACC-257 melanoma, in the test on EKVX NSCLC, in the test with CAKI-1 renal and with OVCAR-8 ovarian was greater than 100 µM in each case. The total growth inhibition concentration (TGI) with HOP-62 NSCLC, in the test on MDA-N, in the test on UACC-62 melanoma and with COLO 205 colon was greater than 100 µM in each case.
As to `CC1C2C=C(O)C(=O)C(C2=O)C1c1ccccc1` (stereo not given), the total growth inhibition concentration (TGI) in the test with UO-31 renal, in the test with NCI-H23 lung, in the test with UACC-257 melanoma, in the test with EKVX NSCLC, with CAKI-1 renal and with OVCAR-8 ovarian was greater than 100 µM each time. Besides, the TGI in the test with OVCAR-4 ovarian, in the test with HOP-62 NSCLC, in the test with UACC-62 melanoma and in the test on COLO 205 colon was greater than 100 µM each time.
As to `Cc1ccc2c(=O)cc(-c3ccc(C)s3)[nH]c2n1`, the total growth inhibition concentration (TGI) was 1.43 µM with UO-31 renal; greater than 100 µM with UACC-257 melanoma; greater than 100 µM in the test on EKVX NSCLC; greater than 100 µM in the test on BT-549 breast; greater than 100 µM in the test with CAKI-1 renal; greater than 28.3 µM with OVCAR-8 ovarian. Also, the TGI was greater than 100 µM in the test on OVCAR-4 ovarian, greater than 100 µM with HOP-62 NSCLC, greater than 78.1 µM in the test with UACC-62 melanoma and 2.29 µM in the test with COLO 205 colon.
Turning to `CSCSCC(CO)NC(=O)/C(C)=C\c1c(C)[nH]c(=O)[nH]c1=O` (stereo not given), the TGI in the test with UO-31 renal was greater than 250 µM; with NCI-H23 lung, greater than 250 µM; in the test on UACC-257 melanoma, greater than 158 µM; in the test on EKVX NSCLC, greater than 250 µM; in the test with CAKI-1 renal it was greater than 250 µM; in the test on OVCAR-8 ovarian, greater than 250 µM. The concentration for total growth inhibition (TGI) with OVCAR-4 ovarian, with HOP-62 NSCLC, with UACC-62 melanoma and in the test on COLO 205 colon was greater than 250 µM in each case.
Turning to `CN(C)N1C(=O)S/C(=C\c2ccc([N+](=O)[O-])cc2)C1=O`, the TGI in the test with NCI-H23 lung, in the test on UACC-257 melanoma, in the test with EKVX NSCLC, in the test with CAKI-1 renal, in the test with OVCAR-8 ovarian and with OVCAR-4 ovarian was greater than 100 µM throughout. The TGI in the test with HOP-62 NSCLC, with MDA-N, in the test on UACC-62 melanoma and in the test with COLO 205 colon was greater than 100 µM throughout.
In the case of `CC(C)(Cl)C(Br)CCC(Br)(CCl)C(Cl)CBr` (stereo not given), the concentration for total growth inhibition (TGI) in the test on UO-31 renal, with NCI-H23 lung, with UACC-257 melanoma, in the test on EKVX NSCLC, in the test with CAKI-1 renal and in the test with OVCAR-8 ovarian was greater than 10 µM each time. The TGI with OVCAR-4 ovarian, in the test with HOP-62 NSCLC, with MDA-N and in the test with COLO 205 colon was greater than 10 µM throughout.
On to `COc1ccc2c(c1)CCCN1CCc3ccccc3C21` (stereo not given), for which the TGI with NCI-H23 lung, with UACC-257 melanoma, with EKVX NSCLC, with CAKI-1 renal, in the test on OVCAR-8 ovarian and in the test with OVCAR-4 ovarian was greater than 100 µM throughout. Further, the TGI in the test with HOP-62 NSCLC was greater than 100 µM; in the test on MDA-N, 52.9 µM; in the test with UACC-62 melanoma it was 83.1 µM; with COLO 205 colon it was 59.3 µM.

The term TGI denotes the concentration giving total growth inhibition. The low end stands for more potent growth arrest, the high end for less potent growth arrest.
